The text below walks through data of patent US20130303509A1, “NAMPT INHIBITORS” (AbbVie Inc., priority 2012, published 2013).

As usually defined, the IC50 is the point on the concentration scale where inhibition reaches its midpoint. Read a low IC50 as inhibition by little substance.

In this assay the test system is PC3 cells. In words: NAMPT Cell Proliferation Assay. The format is cell-based. To be noted: Homo sapiens, PC-3, 120 h, 5 days incubation, cell viability by Cell Titer Glo. In a few lines: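 Five-day CellTiter-Glo viability readout in PC3 cells grown in RPMI/10% heat-inactivated FBS. Compounds added after overnight attachment as a 10-fold dilution series, […]. Percent inhibition fitted to sigmoidal dose-response to derive IC50.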
(In ATP-based viability assays light output follows the ATP content of the culture.)
The compound `COc1ccncc1N1CC(C(=O)Nc2ccc(C3CCN(C(=O)C(C)(C)O)CC3)cc2)C1` [Example 96, N-{4-[1-(2-hydroxy-2-methylpropanoyl)piperidin-4-yl]phenyl}-1-(4-methoxypyridin-3-yl)azetidine-3-carboxamide] came in with an IC50 of 7610 nM.

Regarding `CC(C)(O)C(=O)N1CCC(c2ccc(NC(=O)C3CN(c4cnccc4C#N)C3)cc2)CC1` [Example 97, 1-(4-cyanopyridin-3-yl)-N-{4-[1-(2-hydroxy-2-methylpropanoyl)piperidin-4-yl]phenyl}azetidine-3-carboxamide], the IC50 came to 922 nM.

`CCCCC(=O)N1CCC(c2ccc(NC(=O)C3CN(c4cccnc4)C3)cc2)CC1` [Example 98, N-[4-(1-pentanoylpiperidin-4-yl)phenyl]-1-(pyridin-3-yl)azetidine-3-carboxamide]: half-maximal inhibition (IC50) required 6.05 nM.

`CCC(C)CC(=O)N1CCC(c2ccc(NC(=O)C3CN(c4cccnc4)C3)cc2)CC1` (centres unmarked) [Example 99, N-{4-[1-(3-methylpentanoyl)piperidin-4-yl]phenyl}-1-(pyridin-3-yl)azetidine-3-carboxamide] yielded an IC50 of 5.72 nM.

With `O=C(Nc1ccc(C2CCN(C(=O)CC3C[C@@H]4CC[C@H]3C4)CC2)cc1)C1CN(c2cccnc2)C1` (stereo partly drawn) [Example 100, N-(4-{1-[(1S,4R)-bicyclo[2.2.1]hept-2-ylacetyl]piperidin-4-yl}phenyl)-1-(pyridin-3-yl)azetidine-3-carboxamide], the IC50 was determined as 6.13 nM.

For `O=C(Nc1ccc(C2CCN(C(=O)CC3CCCC3)CC2)cc1)C1CN(c2cccnc2)C1` [Example 101, N-{4-[1-(cyclopentylacetyl)piperidin-4-yl]phenyl}-1-(pyridin-3-yl)azetidine-3-carboxamide], the IC50 amounted to 0.31 nM.

As for `CC1CC1C(=O)N1CCC(c2ccc(NC(=O)C3CN(c4cccnc4)C3)cc2)CC1` (centres unmarked) [Example 102, N-(4-{1-[(2-methylcyclopropyl)carbonyl]piperidin-4-yl}phenyl)-1-(pyridin-3-yl)azetidine-3-carboxamide], half-maximal inhibition (IC50) was put at 0.59 nM.

`O=C(Nc1ccc(C2CCN(C(=O)CN3CCOCC3)CC2)cc1)C1CN(c2cccnc2)C1` [Example 103, N-{4-[1-(morpholin-4-ylacetyl)piperidin-4-yl]phenyl}-1-(pyridin-3-yl)azetidine-3-carboxamide] came in with an IC50 of 1.44 nM.

In turn, `O=C(Nc1ccc(C2CCN(C(=O)c3ccoc3)CC2)cc1)C1CN(c2cccnc2)C1` [Example 104, N-{4-[1-(furan-3-ylcarbonyl)piperidin-4-yl]phenyl}-1-(pyridin-3-yl)azetidine-3-carboxamide] yielded an IC50 of 0.18 nM.

Compound `O=C(Nc1ccc(C2CCN(C(=O)CN3CCCC3)CC2)cc1)C1CN(c2cccnc2)C1` [Example 105, 1-(pyridin-3-yl)-N-{4-[1-(pyrrolidin-1-ylacetyl)piperidin-4-yl]phenyl}azetidine-3-carboxamide] had a concentration for half-maximal inhibition (IC50) of 6.17 nM.

In turn, `O=C1CC[C@H](C(=O)N2CCC(c3ccc(NC(=O)C4CN(c5cccnc5)C4)cc3)CC2)N1` [Example 106, N-{4-[1-(5-oxo D-prolyl)piperidin-4-yl]phenyl}-1-(pyridin-3-yl)azetidine-3-carboxamide] displayed an IC50 of 61.8 nM.

Compound `CN(C)CCC(=O)N1CCC(c2ccc(NC(=O)C3CN(c4cccnc4)C3)cc2)CC1` [Example 107, N-{4-[1-(N,N-dimethyl-beta-alanyl)piperidin-4-yl]phenyl}-1-(pyridin-3-yl)azetidine-3-carboxamide] had an IC50 of 6.88 nM.

In turn, `O=C(Nc1ccc(C2CCN(C(=O)c3nccs3)CC2)cc1)C1CN(c2cccnc2)C1` [Example 108, 1-(pyridin-3-yl)-N-{4-[1-(1,3-thiazol-2-ylcarbonyl)piperidin-4-yl]phenyl}azetidine-3-carboxamide] had an IC50 of 0.13 nM.

In turn, `O=C(Nc1ccc(C2CCN(C(=O)c3ccsc3)CC2)cc1)C1CN(c2cccnc2)C1` [Example 109, 1-(pyridin-3-yl)-N-{4-[1-(thiophen-3-ylcarbonyl)piperidin-4-yl]phenyl}azetidine-3-carboxamide] returned a half-inhibitory concentration (IC50) of 0.66 nM.

The compound `CC1(C(=O)N2CCC(c3ccc(NC(=O)C4CN(c5cccnc5)C4)cc3)CC2)CC1` [Example 110, N-(4-{1-[(1-methylcyclopropyl)carbonyl]piperidin-4-yl}phenyl)-1-(pyridin-3-yl)azetidine-3-carboxamide] registered an IC50 of 0.26 nM.

`Cc1ccsc1C(=O)N1CCC(c2ccc(NC(=O)C3CN(c4cccnc4)C3)cc2)CC1` [Example 111, N-(4-{1-[(3-methylthiophen-2-yl)carbonyl]piperidin-4-yl}phenyl)-1-(pyridin-3-yl)azetidine-3-carboxamide] returned an IC50 of 0.64 nM.

`O=C(Nc1ccc(C2CCN(C(=O)CCC(F)(F)F)CC2)cc1)C1CN(c2cccnc2)C1` [Example 112, 1-(pyridin-3-yl)-N-{4-[1-(4,4,4-trifluorobutanoyl)piperidin-4-yl]phenyl}azetidine-3-carboxamide]: the IC50 came out at 0.76 nM.

Turning to `CN1CCN(CC(=O)N2CCC(c3ccc(NC(=O)C4CN(c5cccnc5)C4)cc3)CC2)CC1` [Example 113, N-(4-{1-[(4-methylpiperazin-1-yl)acetyl]piperidin-4-yl}phenyl)-1-(pyridin-3-yl)azetidine-3-carboxamide], the half-maximal inhibitory concentration (IC50) was determined as 6.34 nM.

`O=C1CC[C@@H](C(=O)N2CCC(c3ccc(NC(=O)C4CN(c5cccnc5)C4)cc3)CC2)N1` [Example 114, N-{4-[1-(5-oxo-L-prolyl)piperidin-4-yl]phenyl}-1-(pyridin-3-yl)azetidine-3-carboxamide] registered an IC50 of 18.1 nM.

Consider `CCOCCC(=O)N1CCC(c2ccc(NC(=O)C3CN(c4cccnc4)C3)cc2)CC1` [Example 115, N-{4-[1-(3-ethoxypropanoyl)piperidin-4-yl]phenyl}-1-(pyridin-3-yl)azetidine-3-carboxamide], for which half-maximal inhibition (IC50) was put at 0.4 nM.

The compound `CC(C)CCC(=O)N1CCC(c2ccc(NC(=O)C3CN(c4cccnc4)C3)cc2)CC1` [Example 116, N-{4-[1-(4-methylpentanoyl)piperidin-4-yl]phenyl}-1-(pyridin-3-yl)azetidine-3-carboxamide] registered an IC50 of 0.64 nM.

In the case of `CC1(C(=O)N2CCC(c3ccc(NC(=O)C4CN(c5cccnc5)C4)cc3)CC2)CCCCC1` [Example 117, N-(4-{1-[(1-methylcyclohexyl)carbonyl]piperidin-4-yl}phenyl)-1-(pyridin-3-yl)azetidine-3-carboxamide], the IC50 stood at 0.63 nM.

For `CC(=O)N1CCC(c2ccc(NC(=O)C3CN(c4cccnc4)C3)cc2)CC1` [Example 118, N-[4-(1-acetylpiperidin-4-yl)phenyl]-1-(pyridin-3-yl)azetidine-3-carboxamide], the IC50 worked out at 0.22 nM.

`O=C(Nc1ccc(C2CCN(C(=O)CC3CCCCC3)CC2)cc1)C1CN(c2cccnc2)C1` [Example 119, N-{4-[1-(cyclohexylacetyl)piperidin-4-yl]phenyl}-1-(pyridin-3-yl)azetidine-3-carboxamide] returned a half-maximal inhibitory concentration (IC50) of 0.19 nM.

The compound `CC(=O)N[C@@H](CC(C)C)C(=O)N1CCC(c2ccc(NC(=O)C3CN(c4cccnc4)C3)cc2)CC1` [Example 120, N-{4-[1-(N-acetyl-L-leucyl)piperidin-4-yl]phenyl}-1-(pyridin-3-yl)azetidine-3-carboxamide] yielded a concentration for half-maximal inhibition (IC50) of 0.23 nM.

Compound `CCC(=O)N1CCC(c2ccc(NC(=O)C3CN(c4cccnc4)C3)cc2)CC1` [Example 121, N-[4-(1-propanoylpiperidin-4-yl)phenyl]-1-(pyridin-3-yl)azetidine-3-carboxamide] had a 50% inhibitory concentration (IC50) of 0.62 nM.

Compound `O=C(Nc1ccc(C2CCN(C(=O)CC(F)(F)F)CC2)cc1)C1CN(c2cccnc2)C1` [Example 122, 1-(pyridin-3-yl)-N-{4-[1-(3,3,3-trifluoropropanoyl)piperidin-4-yl]phenyl}azetidine-3-carboxamide] displayed an IC50 of 0.61 nM.

With `COCCOCC(=O)N1CCC(c2ccc(NC(=O)C3CN(c4cccnc4)C3)cc2)CC1` [Example 123, N-(4-{1-[(2-methoxyethoxy)acetyl]piperidin-4-yl}phenyl)-1-(pyridin-3-yl)azetidine-3-carboxamide], the half-inhibitory concentration (IC50) is 1.03 nM.

`O=C(Nc1ccc(C2CCN(C(=O)CCN3CCOCC3)CC2)cc1)C1CN(c2cccnc2)C1` [Example 124, N-(4-{1-[3-(morpholin-4-yl)propanoyl]piperidin-4-yl}phenyl)-1-(pyridin-3-yl)azetidine-3-carboxamide] came in with a 50% inhibitory concentration (IC50) of 1.44 nM.

`CC(C)(C)C(=O)N1CCC(c2ccc(NC(=O)C3CN(c4cccnc4)C3)cc2)CC1` [Example 125, N-{4-[1-(2,2-dimethylpropanoyl)piperidin-4-yl]phenyl}-1-(pyridin-3-yl)azetidine-3-carboxamide] yielded a 50% inhibitory concentration (IC50) of 0.24 nM.

In turn, `Cc1ccc(C(=O)N2CCC(c3ccc(NC(=O)C4CN(c5cccnc5)C4)cc3)CC2)s1` [Example 126, N-(4-{1-[(5-methylthiophen-2-yl)carbonyl]piperidin-4-yl}phenyl)-1-(pyridin-3-yl)azetidine-3-carboxamide] returned an IC50 of 0.26 nM.

Compound `O=C(Nc1ccc(C2CCN(C(=O)c3cccs3)CC2)cc1)C1CN(c2cccnc2)C1` [Example 127, 1-(pyridin-3-yl)-N-{4-[1-(thiophen-2-ylcarbonyl)piperidin-4-yl]phenyl}azetidine-3-carboxamide] registered an IC50 of 0.14 nM.

`Cn1cccc1C(=O)N1CCC(c2ccc(NC(=O)C3CN(c4cccnc4)C3)cc2)CC1` [Example 128, N-(4-{1-[(1-methyl-1H-pyrrol-2-yl)carbonyl]piperidin-4-yl}phenyl)-1-(pyridin-3-yl)azetidine-3-carboxamide] displayed an IC50 of 0.16 nM.

With `O=C(Nc1ccc(C2CCN(C(=O)c3ccco3)CC2)cc1)C1CN(c2cccnc2)C1` [Example 129, N-{4-[1-(furan-2-ylcarbonyl)piperidin-4-yl]phenyl}-1-(pyridin-3-yl)azetidine-3-carboxamide], the IC50 is 0.16 nM.

Regarding `O=C(Nc1ccc(C2CCN(C(=O)CCN3CCCCC3)CC2)cc1)C1CN(c2cccnc2)C1` [Example 130, N-(4-{1-[3-(piperidin-1-yl)propanoyl]piperidin-4-yl}phenyl)-1-(pyridin-3-yl)azetidine-3-carboxamide], inhibition was half-maximal at 1.81 nM (IC50).
